This passage reports AC50 results from PubChem BioAssay AID977624 (Broad Institute, 2014).

Inconclusive results are not listed. Calls of active or inactive are those of the source.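 Rule for the calls: active = compound lowering the normal-ribosome reporter at least twice as much as the humanized-ribosome reporter, growth loss under a set limit; inconclusive = no clear call, values can overlap the other calls; inactive = the rest.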

In the assay the test system is E. coli wild-type GFP strain growth, fluorescence, 24 h. Nature of the assay: wild-type E. coli growth inhibition versus h34 humanized strain – h34 mutant RFP, wild-type GFP, cherry-pick, dose response (AID 977624).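 Note: wild-type GFP strain co-cultured with humanized h34 ribosome RFP strain in same well.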
As a reminder, the AC50 is the midpoint of the concentration-response curve, whichever way the signal moves. As to `O=C(Nc1ccc(C(=O)Nc2ccccc2Cl)cc1)c1cccnc1`, the AC50 is > 100 µM (inactive).
Take `Cc1ccc(S(=O)(=O)NCc2c(-c3ccccc3)noc2C)cc1`: the AC50 was > 100 µM (inactive).
The value for `COc1ccc(NC(=O)Nc2cccc3c2O[C@@H](CN(C)S(=O)(=O)c2ccc(Cl)cc2)[C@H](C)CN([C@H](C)CO)C3=O)cc1` was > 100 µM (inactive).
Next, `CCN(CC)CCN(C(=O)C1CCCCC1)c1nc2cc3c(cc2s1)OCO3`: > 100 µM (inactive); `O=C(CN1CCc2ccccc2C1)Nc1ccc(F)cc1F`: > 100 µM (inactive).
The value for `COc1ccccc1Cn1c(=S)[nH]c2ccc(F)cc2c1=O` was > 100 µM (inactive); that for `Cc1ccc(NC(=O)C2CCN(S(=O)(=O)c3ccc4c(c3)NC(=O)CO4)CC2)cc1` was > 100 µM (inactive).
On to `CC(C)(C)C1CCC(OCC(O)CN2CCN(c3ccccn3)CC2)CC1` (stereo not drawn), for which the AC50 is > 100 µM (inactive).
With `CC1(C(=O)NS(=O)(=O)c2ccc3c(c2)CCO3)CCN1C(=O)c1ccccc1CCc1ccccc1` (stereo not drawn), the AC50 is > 100 µM (inactive).
In the case of `CN(CCOc1ccccc1)S(=O)(=O)c1ccccc1C#N`, the AC50 is > 100 µM (inactive).
`Fc1cccc(Cc2c(-c3ccco3)nc3c4ccccc4ccn23)c1`: the AC50 is > 100 µM (inactive).
With `O=C(c1ccc(-n2cccn2)cc1)N1CCc2ccccc2C1`, the AC50 was > 100 µM (inactive).
The value for `O=C(CCCSc1nc2ccccc2s1)NCc1ccc2c(c1)OCO2` was > 100 µM (inactive); that for `CSc1cccc(NC(=O)CSc2nc3ccccc3o2)c1` was > 100 µM (inactive); that for `O=C(NCc1ccccc1)c1nc(S(=O)(=O)Cc2ccccc2)ncc1Cl` was > 100 µM (inactive).
For the compound `O=C(NCc1ccco1)c1ccc(COc2cccc3ccccc23)cc1`, the AC50 was > 100 µM (inactive).
Next, `Cc1cc(Br)ccc1SCC(=O)OCC(=O)NCc1ccco1`: > 100 µM (inactive); `COc1ccc(C(CC(=O)c2ccc(O)cc2)S(=O)(=O)c2ccc(C)cc2)cc1` (stereo not drawn): > 100 µM (inactive).
Next, `COc1ccc(C(=O)Nc2ccc3oc(Cc4ccc(Cl)cc4)nc3c2)cc1OC`: > 100 µM (inactive); `COc1ccc(-c2nnn(CC(=O)N3CCN(c4ccccc4OC)CC3)n2)cc1OC`: > 100 µM (inactive).
The value for `C[C@H](CO)N1C[C@H](C)[C@H](CN(C)C(=O)CCCN(C)C)OCCCC[C@H](C)Oc2ccc(NC(=O)Nc3cccc4ccccc34)cc2C1=O` was > 100 µM (inactive).
With `CC1(C)CC(=O)c2cnc(N3CCc4ccccc43)nc2C1`, the AC50 was > 100 µM (inactive).
Next, `O=C(Nc1ccc(S(=O)(=O)NC2=NCCCCC2)cc1)c1ccc([N+](=O)[O-])s1`: > 100 µM (inactive); `CCCCC(=O)N1CCN(c2nc3ccc(Br)cc3s2)CC1`: > 100 µM (inactive).
Next, `Cc1ccc(NC(=O)CN(C)S(=O)(=O)c2cccc3cccnc23)cc1F`: > 100 µM (inactive); `C=CCn1c(-c2cc3cccc(OC)c3o2)n[nH]c1=S`: > 100 µM (inactive).
Next, `Cc1cc(C(=O)COC(=O)c2ccc(Br)o2)c(C)n1C`: > 100 µM (inactive); `NC(=O)c1sc2nnc(-c3ccccc3)c(-c3ccccc3)c2c1N`: > 100 µM (inactive).
Turning to `COc1ccc(C(=O)NCCc2ccccn2)cc1S(=O)(=O)Nc1ccc(Br)cc1`, the AC50 was > 100 µM (inactive).
Next, `Cc1oc(-c2ccc(-c3ccccc3)cc2)nc1CN(C)C1CCOC1` (stereo not drawn): > 100 µM (inactive); `Cc1cccc(-c2ccc([C@H]3[C@@H](CO)N4CCCCN(S(=O)(=O)c5ccccc5C)C[C@H]34)cc2)c1`: > 52 µM (inactive).
Regarding `O=C(Nc1cccc(O)c1)c1cc(-c2ccccc2Cl)on1`, the AC50 was > 100 µM (inactive).
Turning to `Cc1ccccc1-n1nnnc1SCCCC(=O)c1ccc(F)cc1`, the AC50 was > 100 µM (inactive).
Next, `Cc1n[nH]c(C)c1Sc1ccccc1[N+](=O)[O-]`: > 100 µM (inactive).
The value for `CCC(=O)c1ccc(OCC(=O)Nc2nc(C)cs2)cc1` was > 100 µM (inactive); that for `CCOc1ccc(C(C)=O)cc1CN1C(=O)NC2(CCCCCCC2)C1=O` was > 100 µM (inactive); that for `COc1ccc(-c2noc(=O)n2Cc2ccccc2Cl)cc1` was > 100 µM (inactive).
Next, `CCOc1ccccc1N1CCN(Cc2cn[nH]c2-c2ccc(F)cc2)CC1`: > 100 µM (inactive); `COC(=O)c1cccc(CN2C(=O)SC(Nc3ccc(C)cc3)C2=O)c1` (stereo not drawn): > 100 µM (inactive).
In the case of `CCOC(=O)c1[nH]c2ccccc2c1NC(=O)c1ccc(Br)o1`, the AC50 is > 100 µM (inactive).
The value for `O=S(=O)(c1ccccc1)N1C[C@@H]2[C@H](c3ccccc31)[C@H](CO)N2Cc1ccccc1` was > 100 µM (inactive); that for `O=S(=O)(NC1c2cccc3cccc(c23)C1Sc1ncccn1)c1ccccc1` (stereo not drawn) was > 100 µM (inactive).
For `COC(=O)COc1ccc(S(=O)(=O)N2CCc3ccccc3C2)cc1C`, the AC50 is > 100 µM (inactive).
The value for `N#Cc1ccsc1NC(=O)CSc1nnnn1-c1ccc(O)cc1` was > 100 µM (inactive); that for `CN(C)C(=O)C1C2NC(=S)N(c3cccc(Cl)c3)C1(C)Oc1ccc(Cl)cc12` (stereo not drawn) was > 100 µM (inactive).
The value for `CC(OC(=O)CCc1nc2ccccc2c(=O)[nH]1)C(=O)c1ccc(Br)cc1` (stereo not drawn) was > 100 µM (inactive); that for `COc1ccc(CNC(=O)Cc2cn(C)c3ccccc23)c(OC)c1` was > 100 µM (inactive); that for `COC(=O)C(Cc1csc2ccc(Cl)cc12)NC(=O)c1ccc(Cl)cc1` (stereo not drawn) was > 100 µM (inactive).
The value for `COc1ccc(C(=O)Cn2c(C)nc([N+](=O)[O-])c2Br)cc1` was > 100 µM (inactive); that for `COc1ccc2[nH]cc(CCNC(=O)C3CC(=O)N(c4ccc(Cl)cc4)C3)c2c1` (stereo not drawn) was > 100 µM (inactive).
Take `CCN(CC)S(=O)(=O)c1ccc(O)c(C(=O)OCC(=O)NC23CC4CC(CC(C4)C2)C3)c1`: the AC50 was > 100 µM (inactive).
Next, `COc1ccc2nc(SCC(=O)Nc3ccccc3OC)[nH]c2c1`: > 100 µM (inactive); `Cc1ccc(S(=O)(=O)Nc2ccccc2CNc2cccc(C)n2)cc1`: > 100 µM (inactive).
Next, `C[C@]12CCC3C(CC[C@H]4C[C@@H](O)CC[C@]34C)[C@H]1CC[C@H]2O` (stereo partly drawn): > 100 µM (inactive); `O=C(O)CCN(Cc1ccccc1)S(=O)(=O)c1ccc(Cl)cc1F`: > 100 µM (inactive); `CCN(C(=O)COC(=O)c1cn(-c2ccccc2)nc1-c1ccccc1)C1CCS(=O)(=O)C1` (stereo not drawn): > 100 µM (inactive).
The value for `CCC(=O)Nc1sc(Cc2ccc3c(c2)OCO3)c(C)c1C(N)=O` was > 100 µM (inactive).
With `O=C(CCCn1c(=S)[nH]c2ccsc2c1=O)Nc1ccc2c(c1)OCCO2`, the AC50 is > 100 µM (inactive).
Turning to `O=C(O)CC1(CC(=O)NCc2ccc(-c3cccs3)cc2)CCCCC1`, the AC50 is > 100 µM (inactive).
Next, `O=C(CCc1ccccc1)Nc1sc2c(c1C(=O)O)CCCC2`: > 100 µM (inactive).
Next, `CCN(c1ccccc1)S(=O)(=O)c1ccc(OC)c(OC)c1`: > 100 µM (inactive).
`C=CCn1c(CCSCc2ccc(OC)c(C)c2)n[nH]c1=S`: the AC50 was > 100 µM (inactive).
Next, `O=C(O)c1ccccc1NC(=O)C(c1ccccc1)c1ccccc1`: > 100 µM (inactive); `O=C(CSc1nc(C2CCCCC2)nc2ccccc12)N1CCCC1`: > 100 µM (inactive).
Next, `Cc1ccccc1OCC(O)Cn1c(NCc2ccco2)nc2c1c(=O)n(C)c(=O)n2C` (stereo not drawn): > 100 µM (inactive); `CC1=Nc2cc(C(=O)NCC3CCCO3)ccc2Sc2ccc(Br)cc21` (stereo not drawn): > 100 µM (inactive); `COc1ccc2nc(SCC(=O)Nc3ccccc3)[nH]c2c1`: > 100 µM (inactive).
The value for `CCOc1ccccc1/C=C/c1cc(C(=O)O)c2ccccc2n1` was > 100 µM (inactive); that for `O=C(Nc1ccc2nc3n(c(=O)c2c1)CCCCC3)c1c(F)ccc([N+](=O)[O-])c1F` was > 100 µM (inactive).
For the compound `C[C@@H]1CN([C@H](C)CO)C(=O)c2cccc(NC(=O)c3ccncc3)c2O[C@@H]1CN(C)S(=O)(=O)c1ccc(Cl)cc1`, the AC50 was > 100 µM (inactive).
With `COc1ccc(-c2csc(NC(=O)CC(NC(C)=O)c3ccccc3)n2)cc1OC` (stereo not drawn), the AC50 is > 100 µM (inactive).
With `O=C(Cn1c2[n+](c3ccc(C(F)(F)F)cc31)CCCCC2)c1ccc2c(c1)OCCO2`, the AC50 was > 100 µM (inactive).
The value for `COc1cc(NC(=O)CSCc2ccc(Cl)cc2Cl)c(C(=O)O)cc1OC` was > 100 µM (inactive).
The value for `CCOc1ccc2sc(NS(=O)(=O)c3ccc(N)cc3)nc2c1` was > 100 µM (inactive).
Next, `CCOc1ccc(S(=O)(=O)Nc2ccc(S(=O)(=O)N3CCCC3)cc2)cc1`: > 100 µM (inactive); `O=C(c1cc(C(=O)N2CCOCC2)c2nc3ccccc3n2c1)c1cc(Cl)cc(Cl)c1O`: > 100 µM (inactive); `COC(=O)c1c(-c2ccc(OC)cc2)sc2cc(OC)c(OC)cc12`: > 100 µM (inactive).
With `Clc1ccc(-c2nc3ccc(Br)cn3c2Cc2ccsc2)cc1`, the AC50 was > 100 µM (inactive).
In the case of `Cc1ccc(NC(=O)CCCSc2ccccc2)cc1S(=O)(=O)N1CCOCC1`, the AC50 is > 100 µM (inactive).
Consider `CC1(C(=O)NS(=O)(=O)c2cccc(Cl)c2)CCN1C(=O)C1(c2ccc(Cl)cc2)CCC1` (stereo not drawn), for which the AC50 was > 100 µM (inactive).
For the compound `CCc1ccc(NC(=O)CCc2c(C)nn(-c3ccc(N4CCCCC4)nn3)c2C)cc1`, the AC50 was > 100 µM (inactive).
The value for `CCOc1ccc(NC(=O)CN(C)CC(=O)Nc2ccc(Br)cc2F)cc1OCC` was > 100 µM (inactive); that for `COc1ccc(Br)c(-c2nc(CS(=O)(=O)c3ccc(F)cc3)no2)c1` was > 100 µM (inactive).
